{"source": "patent US4493828A", "about": "“Use of thyrotropin releasing hormone and related peptides as poultry growth promotants” (Merck & Co., Inc., priority 1982, dated 1985)", "key": {"[1]": {"tested_on": "4-week-old Hubbard x Hubbard cockerels", "experiment": "Example 1: effect of TRH on growth in 4-week-old male chicks (17 days)", "format": "in vivo, chicken", "settings": "for body weight gain as compared with control (in words): P 0.01", "description": "Four-week-old Hubbard x Hubbard cockerels were used in this experiment, and average initial weights were 841.75 g. Synthetic TRH (Beckman Co., Calif.) was dissolved in saline and given daily by intravenous injection via the brachial vein at 0.1 μg/bird, 1.0 μg/bird, and 10.0 μg/bird. Birds were weighed and feed consumption was measured at 2 times a week for 21/2 weeks. Data were analyzed by least squares analyses of variance, using initial weight as a covariant."}, "[2]": {"tested_on": "4-week-old Hubbard×Hubbard cockerels", "experiment": "Example 2: effect of TRH on growth in 4-week-old male chicks (25 days)", "format": "in vivo, chicken", "description": "Four-week-old Hubbard×Hubbard cockerels were used in this experiment, and average weight was 831.38 g. Synthetic TRH (Beckman Co., CA) was dissolved in saline and given daily by intravenous injection via the brachial vein at 0.1 μg/bird, 1.0 μg/bird, and 10 μg/ bird. Birds were weighed twice a week for 4 weeks. Data were analyzed by least squares of variance, using initial weight as a covariant."}, "[3]": {"settings": "0.1 μg/bird daily intravenous, day 3 after start of treatment"}, "[4]": {"settings": "0.1 μg/bird daily intravenous, day 7 after start of treatment"}, "[5]": {"settings": "0.1 μg/bird daily intravenous, day 10 after start of treatment"}, "[6]": {"settings": "0.1 μg/bird daily intravenous, day 14 after start of treatment"}, "[7]": {"settings": "0.1 μg/bird daily intravenous, day 17 after start of treatment"}, "[8]": {"settings": "1.0 μg/bird daily intravenous, day 3 after start of treatment"}, "[9]": {"settings": "1.0 μg/bird daily intravenous, day 7 after start of treatment"}, "[10]": {"settings": "1.0 μg/bird daily intravenous, day 10 after start of treatment"}, "[11]": {"settings": "1.0 μg/bird daily intravenous, day 14 after start of treatment"}, "[12]": {"settings": "1.0 μg/bird daily intravenous, day 14 after start of treatment, P < 0.01"}, "[13]": {"settings": "1.0 μg/bird daily intravenous, day 17 after start of treatment, P < 0.01"}, "[14]": {"settings": "1.0 μg/bird/day, 14 and 17 days after the start of treatment"}, "[15]": {"settings": "10 μg/bird daily intravenous, day 3 after start of treatment"}, "[16]": {"settings": "10 μg/bird daily intravenous, day 7 after start of treatment"}, "[17]": {"settings": "10 μg/bird daily intravenous, day 10 after start of treatment"}, "[18]": {"settings": "10 μg/bird daily intravenous, day 14 after start of treatment"}, "[19]": {"settings": "10 μg/bird daily intravenous, day 14 after start of treatment, P < 0.01"}, "[20]": {"settings": "10 μg/bird daily intravenous, day 17 after start of treatment, P < 0.01"}, "[21]": {"settings": "10 μg/bird/day, 14 and 17 days after the start of treatment"}, "[22]": {"settings": "1.0 μg/bird/day, 22 (p 0.05) and 25 (p 0.025) days after the start of treatment"}, "[23]": {"settings": "TRH (high) 10 μg/bird daily intravenous, day 4 after start of treatment"}, "[24]": {"settings": "TRH (high) 10 μg/bird daily intravenous, day 8 after start of treatment"}}, "data": [{"smiles": "NC(=O)[C@@H]1CCCN1C(=O)[C@H](Cc1c[nH]cn1)NC(=O)[C@@H]1CCC(=O)N1", "note": "[TRH, Glp--His--Pro--NH2]", "values": [{"measurement": "body weight gain", "setting": "[1]; [3]", "result": "171.7 ± 9.8", "unit": "g"}, {"measurement": "body weight gain, percent increased as compared with control", "setting": "[1]; [3]", "result": "+0.6%"}, {"measurement": "body weight, least squares mean ± SEM corrected by initial weight", "setting": "[1]; [3]", "result": "1009.3 ± 9.7", "unit": "g"}, {"measurement": "body weight, percent increased as compared with control", "setting": "[1]; [3]", "result": "+0.1%"}, {"measurement": "body weight gain", "setting": "[1]; [4]", "result": "393.1 ± 14.7", "unit": "g"}, {"measurement": "body weight gain, percent increased as compared with control", "setting": "[1]; [4]", "result": "+5.0%"}, {"measurement": "body weight, least squares mean ± SEM corrected by initial weight", "setting": "[1]; [4]", "result": "1230.6 ± 14.7", "unit": "g"}, {"measurement": "body weight, percent increased as compared with control", "setting": "[1]; [4]", "result": "+1.5%"}, {"measurement": "body weight gain", "setting": "[1]; [5]", "result": "569.4 ± 19.7", "unit": "g"}, {"measurement": "body weight gain, percent increased as compared with control", "setting": "[1]; [5]", "result": "+5.5%"}, {"measurement": "body weight, least squares mean ± SEM corrected by initial weight", "setting": "[1]; [5]", "result": "1406.9 ± 19.7", "unit": "g"}, {"measurement": "body weight, percent increased as compared with control", "setting": "[1]; [5]", "result": "+2.2%"}, {"measurement": "body weight gain", "setting": "[1]; [6]", "result": "824.3 ± 24.9", "unit": "g"}, {"measurement": "body weight gain, percent increased as compared with control", "setting": "[1]; [6]", "result": "+8.9%"}, {"measurement": "body weight, least squares mean ± SEM corrected by initial weight", "setting": "[1]; [6]", "result": "1662.1 ± 24.8", "unit": "g"}, {"measurement": "body weight, percent increased as compared with control", "setting": "[1]; [6]", "result": "+4.0%"}, {"measurement": "body weight gain", "setting": "[1]; [7]", "result": "999.5 ± 27.8", "unit": "g"}, {"measurement": "body weight gain, percent increased as compared with control", "setting": "[1]; [7]", "result": "+7.5%"}, {"measurement": "body weight, least squares mean ± SEM corrected by initial weight", "setting": "[1]; [7]", "result": "1837.1 ± 27.8", "unit": "g"}, {"measurement": "body weight, percent increased as compared with control", "setting": "[1]; [7]", "result": "+3.9%"}, {"measurement": "body weight compared with birds receiving saline injections (in words)", "setting": "[1]; 0.1 μg/bird/day", "result": "slight increase in the body weight"}, {"measurement": "body weight gain", "setting": "[1]; [8]", "result": "174.2 ± 9.7", "unit": "g"}, {"measurement": "body weight gain, percent increased as compared with control", "setting": "[1]; [8]", "result": "+2.1%"}, {"measurement": "body weight, least squares mean ± SEM corrected by initial weight", "setting": "[1]; [8]", "result": "1011.8 ± 9.7", "unit": "g"}, {"measurement": "body weight, percent increased as compared with control", "setting": "[1]; [8]", "result": "+0.3%"}, {"measurement": "body weight gain", "setting": "[1]; [9]", "result": "409.2 ± 14.6", "unit": "g"}, {"measurement": "body weight gain, percent increased as compared with control", "setting": "[1]; [9]", "result": "+9.3%"}, {"measurement": "body weight, least squares mean ± SEM corrected by initial weight", "setting": "[1]; [9]", "result": "1246.7 ± 14.6", "unit": "g"}, {"measurement": "body weight, percent increased as compared with control", "setting": "[1]; [9]", "result": "+2.9%"}, {"measurement": "body weight gain", "setting": "[1]; [10]", "result": "582.9 ± 19.6", "unit": "g"}, {"measurement": "body weight gain, percent increased as compared with control", "setting": "[1]; [10]", "result": "+8.0%"}, {"measurement": "body weight, least squares mean ± SEM corrected by initial weight", "setting": "[1]; [10]", "result": "1420.5 ± 19.6", "unit": "g"}, {"measurement": "body weight, percent increased as compared with control", "setting": "[1]; [10]", "result": "+3.2%"}, {"measurement": "body weight gain, percent increased as compared with control", "setting": "[1]; [11]", "result": "+13.1%"}, {"measurement": "body weight, percent increased as compared with control", "setting": "[1]; [11]", "result": "+6.0%"}, {"measurement": "body weight gain", "setting": "[1]; [12]", "result": "856.2 ± 24.8", "unit": "g"}, {"measurement": "body weight, least squares mean ± SEM corrected by initial weight", "setting": "[1]; [12]", "result": "1693.7 ± 24.6", "unit": "g"}, {"measurement": "body weight, percent increased as compared with control", "setting": "[1]; 1.0 μg/bird daily intravenous, day 17 after start of treatment", "result": "+6.3%"}, {"measurement": "body weight gain, percent increased as compared with control", "setting": "[1]; 1.0 μg/bird daily intravenous, day 17 after start of treatment (end of experiment)", "result": 12.0, "unit": "%"}, {"measurement": "body weight gain", "setting": "[1]; [13]", "result": "1041.2 ± 27.6", "unit": "g"}, {"measurement": "body weight, least squares mean ± SEM corrected by initial weight", "setting": "[1]; [13]", "result": "1878.8 ± 27.6", "unit": "g"}, {"measurement": "body weight compared with birds receiving saline injections (in words)", "setting": "[1]; [14]", "result": "increased body weight significantly"}, {"measurement": "body weight gain as compared with control (in words)", "setting": "[1]; [14]", "result": "significant increase"}, {"measurement": "body weight gain", "setting": "[1]; [15]", "result": "181.6 ± 8.7", "unit": "g"}, {"measurement": "body weight gain, percent increased as compared with control", "setting": "[1]; [15]", "result": "+6.4%"}, {"measurement": "body weight, least squares mean ± SEM corrected by initial weight", "setting": "[1]; [15]", "result": "1019.2 ± 8.7", "unit": "g"}, {"measurement": "body weight, percent increased as compared with control", "setting": "[1]; [15]", "result": "+1.1%"}, {"measurement": "body weight gain", "setting": "[1]; [16]", "result": "399.3 ± 13.1", "unit": "g"}, {"measurement": "body weight gain, percent increased as compared with control", "setting": "[1]; [16]", "result": "+6.7%"}, {"measurement": "body weight, least squares mean ± SEM corrected by initial weight", "setting": "[1]; [16]", "result": "1236.9 ± 13.1", "unit": "g"}, {"measurement": "body weight, percent increased as compared with control", "setting": "[1]; [16]", "result": "+2.1%"}, {"measurement": "body weight gain", "setting": "[1]; [17]", "result": "584.0 ± 7.6", "unit": "g"}, {"measurement": "body weight gain, percent increased as compared with control", "setting": "[1]; [17]", "result": "+8.2%"}, {"measurement": "body weight, least squares mean ± SEM corrected by initial weight", "setting": "[1]; [17]", "result": "1421.6 ± 17.6", "unit": "g"}, {"measurement": "body weight, percent increased as compared with control", "setting": "[1]; [17]", "result": "+3.2%"}, {"measurement": "body weight gain, percent increased as compared with control", "setting": "[1]; [18]", "result": "+12.7%"}, {"measurement": "body weight, percent increased as compared with control", "setting": "[1]; [18]", "result": "+5.8%"}, {"measurement": "body weight gain", "setting": "[1]; [19]", "result": "853.3 ± 22.2", "unit": "g"}, {"measurement": "body weight, least squares mean ± SEM corrected by initial weight", "setting": "[1]; [19]", "result": "1690.8 ± 22.0", "unit": "g"}, {"measurement": "body weight, percent increased as compared with control", "setting": "[1]; 10 μg/bird daily intravenous, day 17 after start of treatment", "result": "+6.5%"}, {"measurement": "body weight gain", "setting": "[1]; [20]", "result": "1044.9 ± 24.7", "unit": "g"}, {"measurement": "body weight, least squares mean ± SEM corrected by initial weight", "setting": "[1]; [20]", "result": "1882.5 ± 24.7", "unit": "g"}, {"measurement": "body weight compared with birds receiving saline injections (in words)", "setting": "[1]; [21]", "result": "increased body weight significantly"}, {"measurement": "body weight gain as compared with control (in words)", "setting": "[1]; [21]", "result": "significant increase"}, {"measurement": "body weight compared with birds receiving saline injections (in words)", "setting": "[2]; 0.1 μg/bird/day", "result": "slight increase in body weight"}, {"measurement": "body weight compared with birds receiving saline injections (in words)", "setting": "[2]; [22]", "result": "significant increase in body weight"}, {"measurement": "body weight gain as compared with control birds (in words)", "setting": "[2]; [22]", "result": "significant increase"}, {"measurement": "body weight compared with birds receiving saline injections (in words)", "setting": "[2]; 10 μg/bird/day", "result": "slight increase in body weight"}, {"measurement": "body weight gain as compared with control birds (in words)", "setting": "[2]; 10 μg/bird/day, throughout the whole experiment", "result": "slight increase in body weight gain"}, {"measurement": "body weight gain", "setting": "[2]; [23]", "result": "156.3 ± 8.4", "unit": "g"}, {"measurement": "body weight gain, percent increase as compared with control", "setting": "[2]; [23]", "result": 4.6, "unit": "%"}, {"measurement": "body weight, least squares mean ± standard error of the mean corrected by initial weight", "setting": "[2]; [23]", "result": "997.7 ± 8.3", "unit": "g"}, {"measurement": "body weight, percent increased as compared with control", "setting": "[2]; [23]", "result": 0.7, "unit": "%"}, {"measurement": "body weight gain", "setting": "[2]; [24]", "result": "377.9 ± 15.1", "unit": "g"}, {"measurement": "body weight gain, percent increase as compared with control", "setting": "[2]; [24]", "result": 0, "unit": "%"}, {"measurement": "body weight, least squares mean ± standard error of the mean corrected by initial weight", "setting": "[2]; [24]", "result": "1219.1 ± 15.0", "unit": "g"}]}]}
